Read-outs that look alike come from different tables or passages of the source. Marks after values point to notes of the source that are not given here.
Tests used:
acute VVC episodes [1] = assay: Study CL-012 culture-verified acute VVC episodes; assay type: in vivo, human; conditions: 150 mg QD for 7 days, then 150 mg QW for 11 weeks
Procedure: The average percentage of subjects with one or more culture-verified acute VVC episodes in the 150 mg oteseconazole group was 3.9% versus 39.4% in the placebo group.

[2] = Study CL-003 in subjects with tinea pedis, plasma PK; assay type: in vivo, human; conditions: for AUC(0-t): read-out: AUC0−8
Procedure: Oteseconazole was slowly absorbed, with median time to peak plasma concentration values that ranged from 5.0 to 6.0 hours after dosing on Days 1 and 14 for all treatments. […] The Cmax values on Day 1 were similar between the mid- and high-dose treatments, since the first dose on that day was 600 mg for each treatment.

[3] = Study CL-001 single-dose escalation in healthy subjects, plasma PK; assay type: in vivo, human; conditions: for Tmax / Vd/F / half-life / Cmax / AUC(0-inf): both sexes, human, plasma
Procedure: Study Oteseconazole CL-001 (hereafter referenced as “CL-001”) was a single-center, Phase 1, double-blind, randomized, placebo-controlled, dose-escalating study in healthy adult subjects.
Sixty-four subjects (43 males and 21 females) between 18 and 55 years of age were enrolled in 8 dose groups. Within each dose group, 6 subjects received oteseconazole and 2 subjects received placebo. In the first 7 cohorts, escalating single oral doses (5, 10, 20, 40, 80, 160, or 320 mg) were administered in the fasted state using 2.5, 20, or 60 mg capsules of oteseconazole or matching placebo. An eighth cohort received a single 320 mg oral dose of oteseconazole or matching placebo after ingesting a high-fat breakfast. Subjects in Cohorts 1 through 6 were followed for 14 days for safety and PK assessments. Visits on Days 28 and 42 were added for Cohorts 7 and 8. Dose escalation proceeded only after safety and PK of the previous dose were determined.
The PK analysis was based on concentration-time data from 36 subjects who received active oteseconazole at doses between 20 mg and 320 mg. The majority of the oteseconazole plasma concentrations in Cohort 1 (5 mg) and Cohort 2 (10 mg) were below the limit of quantification (<20 ng/mL); therefore, no PK analysis could be conducted on these subjects.

acute VVC episodes [4] = assay: Study CL-017 efficacy versus fluconazole, acute VVC episodes; assay type: in vivo, human
recurrent VVC episode = assay: Study CL-006 culture-verified recurrent VVC episodes; assay type: in vivo, human; conditions: 150 mg, 3 months dose group (150 mg QD 7 days, then 150 mg QW 11 weeks)
Text: The dosing regimen yielded oteseconazole plasma concentrations that provided marked efficacy across all dose groups, with no differences in the extent of efficacy noted.

[5] = Study CL-012 plasma concentrations; assay type: in vivo; conditions: human
Procedure: Oteseconazole mean (SD) plasma concentration increased with dosing for 12 weeks, reaching a maximum concentration of 3605.8 (1518.08) μg/L at Week 12. At the end of dosing, there was a slow decrease in oteseconazole plasma concentration, reaching 1122.0 (656.14) μg/L by Week 48 (FIG. 5). Following the loading dose regimen of 150 mg oteseconazole QD for 7 days, the mean (SD) oteseconazole plasma concentration at Day 14 was 1785.5 (747.75) μg/L.

[6] = Physicochemical and biological properties of drug substance
Text: As a BCS Class IIc drug, it may be anticipated that dissolution may be dependent upon the drug substance particle size. (Tsume et al., 2014). Micronization of the drug substance provided a means to deliver drug substance with a small and consistent particle size. A discriminatory dissolution method was developed to show the effect of drug substance particle size on dissolution to help ensure product quality. […] A high shear wet granulation process was developed to densify the product, and improve its flow to enable manufacturing, while maintaining good dissolution from the formulation.

[7] = human, plasma, High Dose 1200 mg/300 mg, Day 1
[8] = human, plasma, High Dose 1200 mg/300 mg, Day 14
[9] = human, plasma, Low Dose 200 mg/50 mg, Day 1
[10] = human, plasma, Low Dose 200 mg/50 mg, Day 14
[11] = human, plasma, Mid Dose 600 mg/150 mg, Day 1
[12] = human, plasma, Mid Dose 600 mg/150 mg, Day 14
[13] = Cohort 4, single oral 40 mg, fasted, mean
[14] = Cohort 5, single oral 80 mg, fasted, mean
[15] = Cohort 6, single oral 160 mg, fasted, mean
[16] = Cohort 7, single oral 320 mg, Fasted, mean
[17] = Cohort 8, single oral 320 mg, Fed (high-fat breakfast), mean
[18] = po, 40 mg, Cohort 4, single oral 40 mg, fasted, mean
[19] = po, 80 mg, Cohort 5, single oral 80 mg, fasted, mean
[20] = po, 160 mg, Cohort 6, single oral 160 mg, fasted, mean
[21] = po, 320 mg, Cohort 7, single oral 320 mg, Fasted, mean
[22] = po, 320 mg, Cohort 8, single oral 320 mg, Fed (high-fat breakfast), mean

Q: Which results are given for `O[C@@](Cn1cnnn1)(c1ccc(F)cc1F)C(F)(F)c1ccc(-c2ccc(OCC(F)(F)F)cc2)cn1` [Oteseconazole, oteseconazole]?
A: average percentage of subjects with one or more culture-verified acute VVC episodes (acute VVC episodes [1]): 3.9%; increase in Cmax, high-dose versus mid-dose treatment ([2]; Day 14, 2-fold dose difference): 15%; increase in concentration (Cmax), mid versus low dose ([2]; Days 1 and 14, 3-fold increase in dose): 2 fold; Cmax achieved as share of target ([2]; high-dose group): about 25%; Cmax [2, 7]: 757 ng/mL; Tmax [2, 7]: 5 h; AUC(0-t) [2, 7]: 3540 ng·h/mL; Cmax [2, 8]: 2520 ng/mL; Tmax [2, 8]: 5.02 h; AUC(0-t) [2, 8]: 17600 ng·h/mL; Cmax [2, 9]: 366 ng/mL; Tmax [2, 9]: 6 h; AUC(0-t) [2, 9]: 1680 ng·h/mL; Cmax [2, 10]: 1090 ng/mL; Tmax [2, 10]: 5 h; AUC(0-t) [2, 10]: 7950 ng·h/mL; Cmax [2, 11]: 679 ng/mL; Tmax [2, 11]: 6 h; AUC(0-t) [2, 11]: 3320 ng·h/mL; Cmax [2, 12]: 2180 ng/mL; Tmax [2, 12]: 5 h; AUC(0-t) [2, 12]: 16100 ng·h/mL; half-life ([2]; human, plasma, blood sampling for 168 days (4032 hours), read-out: terminal phase half-life, range of median values): 86.7 to 172 days; Cmax achieved as share of target ([2]; mid-dose group): about 50%; plasma concentrations with standard high-fat meal versus fasted state ([3]; 320 mg, Cohort 8 versus Cohort 7): higher plasma concentrations; plasma concentrations (majority below the limit of quantification) ([3]; Cohort 1 (5 mg) and Cohort 2 (10 mg)): < 20 ng/mL; Tlag ([3]; Cohort 3, single oral 20 mg, fasted, mean): 1.84 h; CL/F ([3]; Cohort 3, single oral 20 mg, fasted, mean, N = 5): 1.39 ^a L/h; CL/F [3, 13]: 1.30 L/h; Tlag [3, 13]: 1.58 h; CL/F [3, 14]: 1.08 L/h; Tlag [3, 14]: 1.17 h; CL/F [3, 15]: 1.67 L/h; Tlag [3, 15]: 0.75 h; CL/F [3, 16]: 1.35 L/h; Tlag [3, 16]: 0.67 h; CL/F [3, 17]: 0.406 L/h; Tlag [3, 17]: 1.25 h; Tmax ([3]; oral, 4 hours at 80 mg to 10 hours at 40 mg, read-out: Median Tmax, range over doses): 4 to 10 h; Vd/F ([3]; oral, all cohorts, read-out: Vz/F, range of cohort averages): 696 to 1650 L; half-life ([3]; po, 20 mg, Cohort 3, single oral 20 mg, fasted, N = 5): 393 h; Cmax ([3]; po, 20 mg, Cohort 3, single oral 20 mg, fasted, mean): 44.7 ng/mL; AUC(0-inf) ([3]; po, 20 mg, Cohort 3, single oral 20 mg, fasted, mean, N = 5): 16100 ng·h/mL; Vd/F ([3]; po, 20 mg, Cohort 3, single oral 20 mg, fasted, mean, N = 5, read-out: Vz/F): 696 L; Tmax ([3]; po, 20 mg, Cohort 3, single oral 20 mg, fasted, median, read-out: Tmax): 5.03 h; half-life ([3]; po, 40 mg, Cohort 4, single oral 40 mg, fasted): 548 h; AUC(0-inf) [3, 18]: 35000 ng·h/mL; Cmax [3, 18]: 79.7 ng/mL; Vd/F ([3]; po, 40 mg, Cohort 4, single oral 40 mg, fasted, mean, read-out: Vz/F): 939 L; Tmax ([3]; po, 40 mg, Cohort 4, single oral 40 mg, fasted, median, read-out: Tmax): 10 h; half-life ([3]; po, 80 mg, Cohort 5, single oral 80 mg, fasted): 536 h; AUC(0-inf) [3, 19]: 84600 ng·h/mL; Cmax [3, 19]: 165 ng/mL; Vd/F ([3]; po, 80 mg, Cohort 5, single oral 80 mg, fasted, mean, read-out: Vz/F): 761 L; Tmax ([3]; po, 80 mg, Cohort 5, single oral 80 mg, fasted, median, read-out: Tmax): 4.01 h; half-life ([3]; po, 160 mg, Cohort 6, single oral 160 mg, fasted): 618 h; AUC(0-inf) [3, 20]: 109000 ng·h/mL; Cmax [3, 20]: 180 ng/mL; Vd/F ([3]; po, 160 mg, Cohort 6, single oral 160 mg, fasted, mean, read-out: Vz/F): 1400 L; Tmax ([3]; po, 160 mg, Cohort 6, single oral 160 mg, fasted, median, read-out: Tmax): 6 h; half-life ([3]; po, 320 mg, Cohort 7, single oral 320 mg, Fasted): 873 h; AUC(0-inf) [3, 21]: 242000 ng·h/mL; Cmax [3, 21]: 338 ng/mL; Vd/F ([3]; po, 320 mg, Cohort 7, single oral 320 mg, Fasted, mean, read-out: Vz/F): 1650 L; Tmax ([3]; po, 320 mg, Cohort 7, single oral 320 mg, Fasted, median, read-out: Tmax): 5 h; half-life ([3]; po, 320 mg, Cohort 8, single oral 320 mg, Fed (high-fat breakfast)): 1470 h; AUC(0-inf) [3, 22]: 953000 ng·h/mL; Cmax [3, 22]: 988 ng/mL; Vd/F ([3]; po, 320 mg, Cohort 8, single oral 320 mg, Fed (high-fat breakfast), mean, read-out: Vz/F): 741 L; Tmax ([3]; po, 320 mg, Cohort 8, single oral 320 mg, Fed (high-fat breakfast), median, read-out: Tmax): 6 h; efficacy of enhanced loading dose compared with fluconazole (acute VVC episodes [4]; 600 mg Day 1 and 450 mg Day 2 versus fluconazole three 150 mg doses 72 hours apart): noninferior to fluconazole; average percentage of subjects with 1 or more culture-verified acute VVC episodes (acute VVC episodes [4]; including subjects who had a recurrence during the Induction Phase): 5.1%; subjects with a culture-verified recurrent VVC episode by Week 48 (recurrent VVC episode): 4.8%; concentration at 12 week ([5]; 150 mg, Week 12, maximum concentration, read-out: mean (SD) plasma concentration): 3610 ng/mL; concentration at 48 week ([5]; 150 mg, Week 48, read-out: mean (SD) plasma concentration): 1120 ng/mL; concentration at 14 day ([5]; Day 14, after loading 150 mg QD for 7 days, read-out: mean (SD) plasma concentration): 1790 ng/mL; BCS class [6]: BCS Class IIc; hygroscopicity [6]: slightly hygroscopic; stability to light [6]: stable in the presence of light; solubility ([6]; BCS classification): low solubility; chemical stability ([6]; alone and formulated into a drug product): excellent chemical stability; bulk density ([6]; micronized drug substance): approximately 0.2 g/mL; ionization ([6]; pH range of the gastrointestinal tract): unionized throughout the pH range of the gastrointestinal tract
